Ends that are not written are not given here.
Legend:
Assay in all cases: Holdup assay
Format in all cases: binding
[1] = target: HTRA1 PDZ (Homo sapiens, UniProt Q92743); conditions: composite holdup affinity; 0.00=below quantification threshold; read-out: COMP pKd (converted)
[2] = target: MAGI2_6 PDZ (Homo sapiens, UniProt Q86UL8); conditions: composite holdup affinity; 0.00=below quantification threshold; read-out: COMP pKd (converted)
[3] = target: SHANK1 PDZ (Homo sapiens, UniProt Q9Y566); conditions: composite holdup affinity; 0.00=below quantification threshold; read-out: COMP pKd (converted)
[4] = target: IL16_1 PDZ (Homo sapiens, UniProt Q14005); conditions: composite holdup affinity; 0.00=below quantification threshold; read-out: COMP pKd (converted)
[5] = target: GRIP2_6 PDZ (Homo sapiens, UniProt Q9C0E4); conditions: composite holdup affinity; 0.00=below quantification threshold; read-out: COMP pKd (converted)
[6] = target: FRMPD2_1 PDZ (Homo sapiens, UniProt Q68DX3); conditions: composite holdup affinity; 0.00=below quantification threshold; read-out: COMP pKd (converted)
[7] = target: FRMPD3 PDZ (Homo sapiens, UniProt Q5JV73); conditions: composite holdup affinity; 0.00=below quantification threshold; read-out: COMP pKd (converted)
[8] = target: LIN7A PDZ (Homo sapiens, UniProt O14910); conditions: composite holdup affinity; 0.00=below quantification threshold; read-out: COMP pKd (converted)
[9] = target: MAGI1_6 PDZ (Homo sapiens, UniProt Q96QZ7); conditions: sheet PPI_convert; read-out: affinity to PDZ MAGI1_6 (converted)
[10] = target: MAGIX PDZ (Homo sapiens, UniProt Q9H6Y5); conditions: sheet PPI_convert; read-out: affinity to PDZ MAGIX (converted)
Text: Supplement 41467_2022_33018_MOESM4_ESM.xlsx, sheet "PPI_convert" | column: MAGIX

[11] = target: PDZRN4_2 PDZ (Homo sapiens, UniProt Q6ZMN7); conditions: sheet PPI_convert; read-out: affinity to PDZ PDZRN4_2 (converted)
[12] = target: RADIL PDZ (Homo sapiens, UniProt Q96JH8); conditions: composite holdup affinity; 0.00=below quantification threshold; read-out: COMP pKd (converted)
[13] = target: DVL1 PDZ (Homo sapiens, UniProt O14640); conditions: sheet PPI_convert; read-out: affinity to PDZ DVL1 (converted)
[14] = target: DVL2 PDZ (Homo sapiens, UniProt O14641); conditions: sheet PPI_convert; read-out: affinity to PDZ DVL2 (converted)
[15] = target: PARD3B_2 PDZ (Homo sapiens, UniProt Q8TEW8); conditions: sheet PPI_convert; read-out: affinity to PDZ PARD3B_2 (converted)
[16] = target: PDZD2_3 PDZ (Homo sapiens, UniProt O15018); conditions: sheet PPI_convert; read-out: affinity to PDZ PDZD2_3 (converted)
[17] = target: PDZRN3_2 PDZ (Homo sapiens, UniProt Q9UPQ7); conditions: sheet PPI_convert; read-out: affinity to PDZ PDZRN3_2 (converted)
PDZRN3_2 PDZ, sequence (Q9UPQ7 419-503 limits assumed): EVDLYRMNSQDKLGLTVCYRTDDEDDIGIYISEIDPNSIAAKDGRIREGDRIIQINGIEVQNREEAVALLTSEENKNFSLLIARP

PDZD2_3 PDZ, sequence (O15018 586-672 limits assumed): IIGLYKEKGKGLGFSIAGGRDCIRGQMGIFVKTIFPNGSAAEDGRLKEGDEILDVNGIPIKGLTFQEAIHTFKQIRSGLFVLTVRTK
IL16_1 PDZ, sequence (Q14005 216-302 limits assumed): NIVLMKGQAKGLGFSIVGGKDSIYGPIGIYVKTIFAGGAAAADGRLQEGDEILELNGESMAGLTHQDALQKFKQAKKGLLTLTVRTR
DVL2 PDZ, sequence (O14641 267-339 limits assumed): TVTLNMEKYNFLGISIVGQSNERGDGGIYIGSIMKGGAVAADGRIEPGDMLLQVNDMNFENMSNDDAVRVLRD
SHANK1 PDZ, sequence (Q9Y566 663-757 limits assumed): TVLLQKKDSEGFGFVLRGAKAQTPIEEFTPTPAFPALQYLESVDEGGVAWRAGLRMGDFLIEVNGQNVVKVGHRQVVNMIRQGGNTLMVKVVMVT
PARD3B_2 PDZ, sequence (Q8TEW8 383-468 limits assumed): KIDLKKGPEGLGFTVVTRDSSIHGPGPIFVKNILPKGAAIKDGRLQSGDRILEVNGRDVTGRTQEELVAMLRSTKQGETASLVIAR
PDZRN4_2 PDZ, sequence (Q6ZMN7 402-486 limits assumed): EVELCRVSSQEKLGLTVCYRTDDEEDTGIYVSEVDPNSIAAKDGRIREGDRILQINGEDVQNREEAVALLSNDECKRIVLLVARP
DVL1 PDZ, sequence (O14640 251-323 limits assumed): as the sequence (O14641 267-339 limits assumed) above, with K8R, Y9H, N10H, E22D, M57V, D73E counted along it
GRIP2_6 PDZ, sequence (Q9C0E4 656-738 limits assumed): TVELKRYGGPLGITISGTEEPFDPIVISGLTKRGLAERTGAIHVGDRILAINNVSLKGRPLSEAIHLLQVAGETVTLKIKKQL
FRMPD3 PDZ, sequence (Q5JV73 21-98 limits assumed): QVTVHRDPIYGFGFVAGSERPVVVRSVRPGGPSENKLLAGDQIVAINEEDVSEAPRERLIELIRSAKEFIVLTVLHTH
MAGIX PDZ, sequence (Q9H6Y5 125-209): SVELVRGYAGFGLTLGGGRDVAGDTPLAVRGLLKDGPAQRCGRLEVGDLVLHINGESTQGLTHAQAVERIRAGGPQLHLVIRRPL
LIN7A PDZ, sequence (O14910 108-190 limits assumed): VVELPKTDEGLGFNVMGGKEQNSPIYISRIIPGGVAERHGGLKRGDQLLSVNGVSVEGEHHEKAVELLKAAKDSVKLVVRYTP
MAGI2_6 PDZ, sequence (Q86UL8 1147-1229 limits assumed): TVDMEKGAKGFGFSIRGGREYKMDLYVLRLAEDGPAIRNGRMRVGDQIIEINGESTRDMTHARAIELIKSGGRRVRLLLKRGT
RADIL PDZ, sequence (Q96JH8 976-1061 limits assumed): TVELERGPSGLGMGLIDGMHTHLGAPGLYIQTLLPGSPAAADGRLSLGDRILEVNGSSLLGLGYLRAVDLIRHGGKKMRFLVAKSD
HTRA1 PDZ, sequence (Q92743 365-467 limits assumed): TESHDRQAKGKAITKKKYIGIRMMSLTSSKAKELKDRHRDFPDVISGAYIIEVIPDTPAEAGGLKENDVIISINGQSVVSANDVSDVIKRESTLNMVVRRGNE
FRMPD2_1 PDZ, sequence (Q68DX3 775-861 limits assumed): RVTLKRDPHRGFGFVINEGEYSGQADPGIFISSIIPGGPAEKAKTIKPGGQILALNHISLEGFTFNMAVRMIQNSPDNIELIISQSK
MAGI1_6 PDZ, sequence (Q96QZ7 1124-1206 limits assumed): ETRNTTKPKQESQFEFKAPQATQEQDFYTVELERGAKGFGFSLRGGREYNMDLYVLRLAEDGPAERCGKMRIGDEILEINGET

Sequence | Kd [1] [µM] | Kd [2] [µM] | Kd [3] [µM] | Kd [4] [µM] | Kd [5] [µM] | Kd [6] [µM] | Kd [7] [µM] | Kd [8] [µM] | Kd [9] [µM] | Kd [10] [µM] | Kd [11] [µM] | Kd [12] [µM] | Kd [13] [µM] | Kd [14] [µM] | Kd [15] [µM] | Kd [16] [µM] | Kd [17] [µM]
RHTTSTETAV [HPV30-E6] | 186 | 64.6 | 186 | 83.2 | 170 | 72.4 | 174 | 158 | 18.6 | 4.47 | 33.1 |  |  |  |  |  | 
RTRQRNETQV [HPV51-E6] |  |  |  |  |  |  |  |  |  |  |  | 151 | 13.8 | 25.7 | 40.7 | 60.3 | 69.2
